Read-outs that look alike come from different tables or passages of the source.

One assay relates to HCC1395. Description: CELLTITER GLO cell proliferation assay (Example 6). Particulars: Homo sapiens, Table 4, read-out: IC50 potency HCC1395. It counts as cell-based. Here is the method: (§1) The toxicity of PBD monomer disulfide prodrugs and diaphorase prodrugs were evaluated against KPL-4, WSU-DLCL2, HCT-116, HCC1395 and Jurkat cell cultures. […] KPL-4 cells further have a high expression of DTD on the order of about 839 nRPKM (where nRPKM refers to normalized reads per Kb of transcript length per million mapped read).
(§2) Potency of the disulfide and DT-diaphorase prodrugs was measured by a cell proliferation assay employing the following protocol (CELLTITER GLO™ Luminescent Cell Viability Assay, Promega Corp.). First, an aliquot of 40 ul of cell culture containing about 8000 cells of WSU-DLCL2 cells (low NQO1 gene and GSH level), 4000 cells of KPL-4 (high NQO1 gene and GSH level), HCT-116 cells, HCC1395 cells or Jurkat cells in RPMI-1640 culture medium (supplemented with 10% fetal bovine serum, 2 mM glutamine, 50 uM cystine, and 0.015 g/L L-methionine) was deposited in each well of a 384-well flat clear bottom white polystyrene tissue culture-treated microplates (Corning, N.Y.). Second, control wells were prepared containing medium with and without cells. Third, compounds with and without disulfide or DT-diaphorase prodrugs (n=3) were added to the experimental wells using ECHO acoustic liquid handling technology (Labcyte Inc, Sunnyvale, Calif.) to create a 10-point dose-response curve in triplicate with 1:3× serial dilution. Fourth, cells were cultured in a humidified incubator set at 37° C. and maintaining an atmosphere of 5% CO2. Fifth, the plates were equilibrated to room temperature for approximately 30 minutes. Sixth, a volume of CELLTITER GLO™ Reagent equal to the volume of cell culture medium present in each well was added. Seventh, the contents were mixed for 10 minutes on an orbital shaker in the dark to induce cell lysis. Eighth, the plate was incubated at room temperature for 30 minutes to stabilize the luminescence signal. Ninth, luminescence was recorded and reported in graphs as % activity where RLU (relative luminescence units) was normalized to controls (no compound control minus no cell control). Tenth, data was plotted as individual points for each replicate (n=3) for each antibody as the mean of luminescence for each set of replicates, with standard deviation error bars.

The next assay relates to Jurkat. The assay can be described thus: CELLTITER GLO cell proliferation assay (Example 6). It counts as cell-based. Particulars: Homo sapiens, Table 4, read-out: IC50 potency Jurkat. Here is the method: as §1, §2
(Cellular ATP, detected with luciferase, serves as a proxy for viable cell number.)

The next assay concerns KPL-4. Description: CELLTITER GLO cell proliferation assay (Example 6). Particulars: data in parenthesis = repeat evaluations. It counts as cell-based. As to the method: as §1, §2
A further assay has as its system WSU-DLCL2. Description: CELLTITER GLO cell proliferation assay (Example 6). It is filed as cell-based. Particulars: data in parenthesis = repeat evaluations. As to the method:
as §1, §2

The test system of another assay is SK-BR-3. Description: CellTiter-Glo toxicity, 3 days (Example 7). It counts as cell-based. Particulars: Homo sapiens, SK-BR-3, 72 h; 3 days; read-out: SK-BR-3 IC50. Here is the method: The toxicity of PBD monomer disulfide prodrugs 1 to 4, PBD dimer disulfide prodrugs 1 and 4, PBD monomer control 1 and PBD dimer control 1 were evaluated against SK-BR-3 cell cultures. […] The HER2-positive breast cancer cell line, SK-BR-3, was obtained internally at Genentech after having been verified by sequence analysis. The cells were grown at 37 Celsius in DMEM+10% FBS supplemented with 2 mM L-glutamine for the duration of this assay. On the first day of the experiment, designated “Day −1”, SK-BR-3 cells were harvested from tissue culture flasks, counted, and then seeded into 96-well plates at a concentration of 7,500 cells per well. The next day, designated “Day 0”, cell culture media was removed from the cells and replaced with 100 uL of fresh media containing a serial dilution (1:3) of the compounds in Table 5 below. The plates were then returned to the 37 Celsius incubator and allowed to incubate for 3 days. On “Day 3” of the assay, the plates were removed from the incubator and allowed to equilibrate to room temperature before adding 100 uL of room-temperature CellTiter-Glo reagent (Promega). The plates were then agitated at 300 rpm for 10 minutes. The luminescence signal generated from this reaction was recorded on an Envision plate reader (Perkin-Elmer). The data were arranged in Excel (Microsoft) and graphed in Kaleidagraph (Synergy Software).

The subject of the next assay is Igrov-1. The assay can be described thus: CellTiter-Glo toxicity, 4 days (Example 9). It is filed as cell-based. Particulars: Homo sapiens, IGROV-1, 96 h, 4 days of drug incubation; Table 7A. The procedure, abridged:
(§3)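 Cells were seeded in 384-well plates, dosed 24 h later and incubated with drug for 4 days. Viability was read as ATP luminescence by CellTiter-Glo and normalised to untreated controls. IC50 is the concentration giving 50% of maximum cell killing.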

In the next assay the test system is UACC-257. Description: CellTiter-Glo toxicity, 4 days (Example 9). It counts as cell-based. Particulars: Homo sapiens, UACC-257, 96 h, 4 days of drug incubation; Table 7A. The procedure, abridged: as §3
Assay [1] has as its system double strand DNA Oligos 1 and 2. The assay can be described thus: DNA oligo binding, LC/MS/UV. Particulars: 100 uM compound, 100 uM DNA, 1 hour, 37 C. Here is the method:
For DNA binding determination, the compounds were incubated at 100 μM with 100 μM double strand DNA Oligos 1 and 2 for 1 hour in 10 mM Bis-Tris, pH 7.1 at 37° C. The single strand DNA Oligos (5′-TATAGAATCTATA-3′ and 3′-ATATCTTAGATAT-5′) were synthesized at Genentech. The samples were analyzed by LC/MS/UV (210-450 nm) on Sciex TripleTOF 5600 on a Hypersil Gold C18 column (100×2.1, 1.9 Thermo Scientific). The column was eluted at 0.4 mL/min by a gradient of buffer A (50 mM hexafluoro-isopropanol and 15 mM diisopropylethylamine) to buffer B (50% A and 50% of 1:1 methanol:acetonitrile), 5% 0-0.5 min, 5-25% B 0.5-25 min, 25-95% B 25-40 min, and to 95% B 40-42 min. The % remaining was an average of the starting DNA oligos remaining in incubations (n=2). The products were characterized by LC/MS in a negative ESI ion mode.

Assay [2] has as its system MDA-MB-453 tumor cell line. Description: in vitro tumor cell killing assay, 3 days (Example 13). Particulars: Homo sapiens, MDA-MB-453, 72 h. It counts as cell-based. Here is the method: The toxicity of various PBD monomer and dimer boronic acid prodrug compounds were evaluated for cell toxicity. In the in vitro tumor cell killing assay, the cells were added to each well of 96-well microtiter plates at 8,000 cells per well and were incubated overnight at 37° C. in a humidified atmosphere of 5% CO2. The cells were exposed to various concentration of the indicated prodrug, positive control and negative control compounds. Where silvestrol was evaluated, a 1:3 serial dilution was used. After incubation for 3 days, Cell titer-Glo reagent (Promega, Madison Wis.) was added to the wells at 100 μL per well followed by a 10-minute incubation at room temperature, and the luminescent signal was measured using a Packard/Perkin-Elmer TopCount.
The toxicity of PBD monomer boronic acid prodrug 1 was evaluated against MDA-MB-453 tumor cell line for cell viability. PBD monomer control 1 was used as a positive control and PBD monomer control 2 was used as a negative control. The toxicity study was repeated wherein the PBD prodrug and controls were administered in combination with silvestrol. FIG. 15C depicts a plot of MDA-MB-453 cell kill versus drug concentration in μM three days after exposure to: (i) a PBD monomer control; (ii) a PBD monomer control having a benzyl formate moiety at the N10 PBD position; and (iii) a PBD monomer boronic acid prodrug. […]

In another assay the test system is HCT-116. Description: CELLTITER GLO cell proliferation assay (Example 6). It is filed as cell-based. Particulars: Homo sapiens. As to the method: as §1, §2
Another assay concerns KPL-4 Cell line. Description: Cell viability, DTD-activated quinone prodrugs (Example 15). It counts as cell-based. Particulars: KPL4, read-out: IC50 Potency (nM). As to the method: (§4) The toxicity of PBD dimer diaphorase prodrug 1, PBD monomer diaphorase prodrug 2, PBD dimer control 1 and PBD monomer control 1 were evaluated against KPL-4 and WSU cell lines for cell viability. The KPL-4 cell line is was a high DTD cell line characterized by NQO1 nRPKM of 839 and the WSU cell line was a low DTD cell line characterized by a NQO1 nRPKM of 1.36. The IC50 ratios are based on the prodrug IC50 value relative to the PBD dimer control.

Another assay concerns WSU Cell line. The description is as above. It is filed as cell-based. Particulars: read-out: IC50 Potency (nM). Here is the method: as §4
In another assay the target is T1, DT Diaphorase (Homo sapiens, UniProt P15559).
T1 construct: purchased Sigma D1315
The assay can be described thus: in vitro DT diaphorase activated drug release assay (NADPH depletion). It counts as biochemical. Particulars: in <5 min. As to the method: An in vitro DT diaphorase activated drug release assay was used to measure NADPH depletion. DT diaphorase activated release of Norfloxacin and Payload (PBD) was measured by the in vitro depletion of NADPH. The assay method was modified from the absorbance measurement of NADPH at A340 (Osman et. al, Chemico-Biological Interactions 147 (2004) 99-108) due to the interference of compounds. The depletion of NADPH was measured by monitoring the decrease of fluorescence intensity of NADPH at 480 nm after being excited at […]. […] Prior to assay, dilute the stock to 1 mM as the 5× working solution; (5) DT Diaphorase specific Inhibitor: prepare 40 mM stock of Dicumarol (Sigma, Cat #M1390-5G, MW=336.29) in 0.13 N NaOH, stored at 4° C. Dilute the stock to 250 uM as the 5× working solution; (6) Compounds: dilute the Norfloxacin and PBD conjugated compounds in assay buffer to 250 uM as the 5× working solution; and (7) 384 well black plate with clear bottom. For the assay procedure: (1) The reaction mix containing 0.5 uM DT-D, 50 uM compound, […] NADPH was set up in a 384 well plate at 50 ul/well. For the control with DT Diaphorase inhibitor, Dicumarol was added in the reaction mix at final 50 uM for each compound. Reaction mix containing NADPH and compound only was also added as the baseline controls. The DT Diaphorase was added in the last step; and (2) The reaction mixes were incubated at room temperature for 5, 30, 90 min. The fluorescence intensity (RFU) of DNAPH was recorded on M1000 plate reader (Tecan) with excitation at 340 nm and emission at 480 nm. For data analysis, data was analyzed and plotted using Prism GraphPad 6. The depletion of NADPH was calculated by the formula below at reaction time point at 90 min wherein: % NADPH depletion=[…].

[3] abbreviates: KPL4, Table 4, read-out: IC50 potency KPL-4.
Setting [4] is: Homo sapiens, WSUDLCL2, Table 4, read-out: IC50 potency WSU-DLCL2.

T1 sequence (P15559 whole entry): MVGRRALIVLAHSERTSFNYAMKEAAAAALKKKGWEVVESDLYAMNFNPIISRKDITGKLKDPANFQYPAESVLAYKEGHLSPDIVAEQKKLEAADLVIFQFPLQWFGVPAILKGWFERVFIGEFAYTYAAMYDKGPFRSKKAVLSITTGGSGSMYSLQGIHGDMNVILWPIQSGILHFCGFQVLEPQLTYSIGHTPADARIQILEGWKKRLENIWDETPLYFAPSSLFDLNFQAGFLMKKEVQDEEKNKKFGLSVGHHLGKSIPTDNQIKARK

For `C=C1C[C@H]2C=Nc3cc(OCCCCCOc4cc5c(cc4OC)C(=O)N4CC(=C)C[C@H]4C(O)N5C(=O)OCc4ccc(NC(=O)OCc5cc6c(n5C)C(=O)C=C(OC)C6=O)cc4)c(OC)cc3C(=O)N2C1` (some centres unmarked) [PBD dimer diaphorase prodrug 2], the IC50 in the assay on HCC1395 amounted to 9.84 nM; with Jurkat, 1.25 nM; in the assay on KPL-4 (setting [3]), 10.1 nM; in the assay on WSU-DLCL2 (setting [4]) it was 0.8 nM.
For the molecule `C=C1C[C@H]2C=Nc3cc(OCCCCCOc4cc5c(cc4OC)C(=O)N4CC(=C)C[C@H]4C(O)N5C(=O)OCC4(SSCC)CCC4)c(OC)cc3C(=O)N2C1` (some centres unmarked) [PBD dimer disulfide prodrug 1], the 50% inhibitory concentration (IC50) in the assay on SK-BR-3 worked out at 2.39 nM; in the assay on Igrov-1 it was 0.21 nM; with UACC-257, 2.2 nM. The “% DNA oligo remaining” value in [1] is listed as more than 99.5%.
For `C=C1C[C@H]2C(O)N(C(=O)OCc3ccc(B4OC(C)(C)C(C)(C)O4)cc3)c3cc(OC)c(OC)cc3C(=O)N2C1` (some centres unmarked) [PBD monomer boronic acid prodrug 1], the 50% effective concentration (EC50) in assay [2] was 1850 nM.
On to `C=C1C[C@H]2C=Nc3cc(OCCCCCOc4cc5c(cc4OC)C(=O)N4CC(=C)C[C@H]4C(O)N5C(=O)OCc4cn(C)c5c4C(=O)C(OC)=CC5=O)c(OC)cc3C(=O)N2C1` (some centres unmarked) [PBD dimer diaphorase prodrug 3], for which the IC50 with HCT-116 (HCT-116, Table 4, read-out: IC50 potency HCT-116) is 1.23 nM; in the assay with KPL-4 (setting [3]) it was 1.87 nM; in the assay with WSU-DLCL2 (setting [4]) it was 0.24 nM.
With `C=C1C[C@H]2C(O)N(C(=O)OCc3cc4c(n3C)C(=O)C=C(OC)C4=O)c3cc(OC)c(OC)cc3C(=O)N2C1` (some centres unmarked) [PBD monomer diaphorase prodrug 2], the IC50 in the assay with HCT-116 (HCT-116, read-out: IC50 potency HCT-116) came to 223 nM; with KPL-4 (KPL4, read-out: IC50 potency KPL-4, Table 4), 344 nM; in the assay on KPL-4 (read-out: IC50 potency KPL-4, Table 4), 355 nM; in the assay with WSU-DLCL2 (Homo sapiens, WSUDLCL2, read-out: IC50 potency WSU-DLCL2, Table 4), 575 nM; in the assay on WSU-DLCL2 (read-out: IC50 potency WSU-DLCL2, Table 4) it was 288 nM; in the assay with KPL-4 Cell line, 344 nM. Also, the IC50 with WSU Cell line came to 575 nM. The “NADPH Dep.” value at DT Diaphorase is on record as more than 90% in.

One may read the IC50 as the concentration needed to halve the response being measured. As a reminder, the EC50 is the concentration that produces a half-maximal response.

Values taken from patent US11576979B2, “Pyrrolobenzodiazepine prodrugs and antibody conjugates thereof” (GENENTECH, INC., priority 2016, dated 2023).
